Structures can show the parent of a compound that is named as a salt.
target: human KAT II (hKAT II) enzyme (Homo sapiens, UniProt Q8N5Z0); test: KAT II Inhibition Spectra Assay; format: biochemical; details: single determination unless marked a (geometric mean of 2-4 determinations); decrease in OD370, L-kynurenine substrate, 37° C. for 15-20 h; read-out: KATII IC50
Description: KAT II Inhibition Spectra Assay
Formation of kynurenic acid (KYNA) is indirectly assessed by a decrease in light absorbance at 370 nm (OD370) as the L-kynurenine (KYN) substrate is converted by the human KAT II (hKAT II) enzyme into KYNA. An inhibitor would therefore inhibit the decrease in OD370.
The protocol was performed by placing the following reagents into a Costar 384 well black plate (30 μL total assay volume/well): • 10 μL of 3× concentrated compound; • 10 μL of 3× concentrated substrate mix (BGG (Sigma G-5009); 3 mM L-Kynurenine in 150 mM Tris Acetate (Sigma K3750); 3 mM α-ketoglutaric acid in 150 mM Tris Acetate (Sigma K2010); and 210 μM pyridoxal 5-phosphate (PLP) in 150 mM Tris Acetate (Sigma 9255)); and • 10 μL of 3× concentrated enzyme (15 nM enzyme in 150 mM Tris Acetate with 0.3% bovine serum).
Plates were sealed and incubated at 37° C. for 15-20 h before reading OD370 on a SpectraMax Plus plate reader. IC50s were generated by comparing the efficacy of compounds across a concentration range to inhibit a reduction in the OD370 value relative to assay wells with DMSO added in place of concentrated compound. Biological data for the Examples may be found in Table 2.

Chain of human KAT II (hKAT II) enzyme (Q8N5Z0 30-425): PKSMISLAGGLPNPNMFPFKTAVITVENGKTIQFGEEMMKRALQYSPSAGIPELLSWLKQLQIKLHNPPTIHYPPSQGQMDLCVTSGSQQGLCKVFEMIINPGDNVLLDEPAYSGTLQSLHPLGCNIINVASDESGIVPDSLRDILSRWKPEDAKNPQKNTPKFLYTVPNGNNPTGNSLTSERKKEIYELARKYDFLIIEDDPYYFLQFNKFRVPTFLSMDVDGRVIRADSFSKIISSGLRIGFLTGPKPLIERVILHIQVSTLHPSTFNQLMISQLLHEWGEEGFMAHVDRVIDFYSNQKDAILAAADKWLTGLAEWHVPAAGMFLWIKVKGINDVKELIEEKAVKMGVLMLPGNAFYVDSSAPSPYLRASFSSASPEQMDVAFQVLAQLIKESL

In order of falling IC50:
1. COc1ccc(-c2ccc3c(c2)CC(N)c2n[nH]c(=O)n2-3)cn1 (stereo not drawn) [Example 22, 4—amino—7—(6—methoxypyridin—3—yl)—4,5—dihydro[1,2,4]triazolo[4,3—a]quinolin—1(2M—one, trifluoroacetate salt]  1900 nM
2. CCOc1cc(-c2ccc3c(c2)CC(N)c2n[nH]c(=O)n2-3)ccn1 (stereo not drawn) [Example 17, 4—amino—7—(2—ethoxypyridin—4—yl)—4,5—dihydro[1,2,4]triazolo[4,3—a]quinolin—1(2H)—one, trifluoroacetate salt]  1830 nM
3. NC1Cc2cc(-c3ccc(Cl)cc3Cl)ccc2-n2c1n[nH]c2=O (stereo not drawn) [Example 35, 4—amino—7—(2,4—dichlorophenyl)—4,5—dihydro[1,2,4]triazolo[4,3—a]quinolin—1(2H)—one, trifluoroacetate salt]  1380 nM
4. Cn1cc(-c2ccc3c(c2)CC(N)c2n[nH]c(=O)n2-3)cn1 (stereo not drawn) [Example 18, 4—amino—7—(1—methyl—1H—pyrazol—4—yl)—4,5—dihydro[1,2,4]triazolo[4,3—a]quinolin—1(2H)—one, trifluoroacetate salt]  1360 nM
5. NC1Cc2cc(Oc3ccccc3)cnc2-n2cnnc21 (single isomer, unassigned) [Example 9, 3—phenoxy—5,6—dihydro[1,2,4]triazolo[4,3—a][1,8]naphthyridin—6—amine ENT—2]  1310 nM
6. COc1cccc(Oc2ccc3c(c2)CC(N)c2nncn2-3)c1 (single isomer, unassigned; ent-2) [Example 5, 7-(3-Methoxyphenoxy)-4,5-dihydro[1,2,4]triazolo[4,3-a]quinolin-4-amine, ENT-2]  1240 nM
7. COc1cc2c(cc1Cc1ccccc1)CC(N)c1nncn1-2 (stereo not drawn) [Example 46, 7—benzyl—8—methoxy—4,5—dihydro[1,2,4]triazolo[4,3—a]quinolin—4—amine, hydrochloride salt]  1130 nM
8. NC1Cc2cc(-c3ccc(F)cc3)ccc2-n2c1n[nH]c2=O (stereo not drawn) [Example 24, 4—amino—7—(4—fluorophenyl)—4,5—dihydro[1,2,4]triazolo[4,3—a]quinolin—1(2H)—one. trifluoroacetate salt]  1080 nM
9. Cn1cc2c(-c3ccc4c(c3)CC(N)c3n[nH]c(=O)n3-4)cccc2n1 (stereo not drawn) [Example 41, 4—amino—7—(2—methyl—2H—indazol—4—yl)—4,5—dihydro[1,2,4]triazolo[4,3—a]quinolin—1(2H)—one, trifluoroacetate salt]  1080 nM
10. CCOc1ccc(Cl)cc1-c1ccc2c(c1)CC(N)c1n[nH]c(=O)n1-2 (stereo not drawn) [Example 39, 4—amino—7—(5—chloro—2—ethoxyphenyl)—4,5—dihydro[1,2,4]triazolo[4,3—a]quinolin—1(2H)—one, trifluoroacetate salt]  968 nM
11. NC1Cc2cc(-c3ccc(F)nc3)ccc2-n2c1n[nH]c2=O (stereo not drawn) [Example 42, 4—amino—7—(6—fluoropyridin—3—yl)—4,5—dihydro[1,2,4]triazolo[4,3—a]quinolin—1(2H)—one, trifluoroacetate salt]  849 nM
12. NC1Cc2cc(-c3ccccc3)ccc2-n2c1n[nH]c2=O (stereo not drawn) [Example 45, 4—amino—7—phenyl—4,5-dihydro[1,2,4]triazolo[4,3—a]quinolin—1(2H)—one, hydrochloride salt]  790 nM
13. COc1ccccc1-c1ccc2c(c1)CC(N)c1n[nH]c(=O)n1-2 (stereo not drawn) [Example 19, 4—amino—7—(2—methoxyphenyl)—4,5—dihydro[1,2,4]triazolo[4,3—a]quinolin—1(2H)—one, trifluoroacetate salt]  751 nM
14. NC1Cc2cc(-c3cccc(OC(F)(F)F)c3)ccc2-n2c1n[nH]c2=O (stereo not drawn) [Example 23, 4—amino—7—[3—(trifluoromethoxy)pheny1]—4,5—dihydro[1,2,4]triazolo[4,3—a]quinolin—1(2H)—one, trifluoroacetate salt]  684 nM
15. COc1cncc(-c2ccc3c(c2)CC(N)c2n[nH]c(=O)n2-3)c1 (stereo not drawn) [Example 13, 4—amino—7—(5—methoxypyriclin—3—yl)—4,5—dihydro[1,2,4]triazolo[4,3—a]quinolin—1(2H)—one, trifluoroacetate salt]  673 nM
16. NC1Cc2cc(-c3cccc4ncccc34)ccc2-n2c1n[nH]c2=O (stereo not drawn) [Example 16, 4—amino—7—(quinolin—5—yl)—4,5—dihydro[1,2,4]triazolo[4,3—a]quinolin—1(2H)—one, trifluoroacetate salt]  664 nM
17. COc1cc2c(cc1Cc1ccccc1)CC(N)c1n[nH]c(=O)n1-2 (stereo not drawn) [Example 47, 4—amino—7—benzyl—8—methoxy—4,5—dihydro[1,2,4]triazolo[4,3—a]quinolin—1(2H)—one, hydrochloride salt]  637 nM
18. Cc1ccc(C)c(-c2ccc3c(c2)CC(N)c2n[nH]c(=O)n2-3)c1 (stereo not drawn) [Example 38, 4—amino—7—(2,5-dimethylphenyl)—4,5—dihydro[1,2,4]triazolo[4,3—a]quinolin—1(2H)—one, trifluoroacetate salt]  591 nM
19. NC1Cc2cc(-c3cccnc3)ccc2-n2c1n[nH]c2=O (stereo not drawn) [Example 20, 4—amino—7—(pyridin—3—yl)—4,5—dihydro[1,2,4]triazolo[4,3—a]quinolin—1(2H)—one, trifluoroacetate salt]  546 nM
20. CC(C)Oc1cccc(-c2ccc3c(c2)CC(N)c2n[nH]c(=O)n2-3)c1 (stereo not drawn) [Example 30, 4—amino—7—[3—(propan—2—yloxy)phenyl]—4,5—dihydro[1,2,4]triazolo[4,3—a]quinolin—1(2H)—one, trifluoroacetate salt]  534 nM
21. NC1Cc2cc(-c3ccccc3OC(F)(F)F)ccc2-n2c1n[nH]c2=O (stereo not drawn) [Example 37, 4—amino—7—[2—(trifluoromethoxy)phenyl]—4,5—dihydro[1,2,4]triazolo[4,3—a]quinolin—1(2H)—one, trifluoroacetate salt]  527 nM
22. NC1Cc2cc(-c3cccc(F)c3)ccc2-n2c1n[nH]c2=O (stereo not drawn) [Example 34, 4—amino—7—(3—fluorophenyl)—4,5—dihydro[1,2,4]triazolo[4,3—a]quinolin—1(2H)—one, trifluoroacetate salt]  415 nM
23. NC1Cc2cc(Oc3ccccc3)ncc2-n2cnnc21 (stereo not drawn) [Example 7, 7-Phenoxy-4,5-dihydro[1,2,4]triazolo[4,3-a][1,7]naphthyridin-4-amine, hydrochloride salt]  413 nM
24. COc1cccc(-c2ccc3c(c2)CC(N)c2n[nH]c(=O)n2-3)c1 (stereo not drawn) [Example 28, 4—amino—7—(3—methoxyphenyl)—4,5—dihydro[1,2,4]triazolo[4,3—a]quinolin—1(2H)—one, trifluoroacetate salt]  357 nM
25. NC1Cc2cc(-c3cccc4cnccc34)ccc2-n2c1n[nH]c2=O (stereo not drawn) [Example 12, 4—amino—7—(isoquinolin—5—yl)—4,5—dihydro[1,2,4]triazolo[4,3—a]quinolin—1(2H)—one, trifluoroacetate salt]  334 nM
26. NC1Cc2cc(-c3ccccc3C(F)(F)F)ccc2-n2c1n[nH]c2=O (stereo not drawn) [Example 40, 4—amino—7—[2—(trifluoromethyl)phenyl]—4,5—dihydro[1,2,4]triazolo[4,3—a]quinolin—1(2H)—one, trifluoroacetate salt]  320 nM
27. COc1ccc(F)cc1-c1ccc2c(c1)CC(N)c1n[nH]c(=O)n1-2 (stereo not drawn) [Example 32, 4—amino—7—(5—fluoro—2—methoxyphenyl)—4,5—dihydro[1,2,4]triazolo[4,3—a]quinolin—1(2H)—one, trifluoroacetate salt]  302 nM
28. NC1Cc2cc(Oc3ccccc3)cnc2-n2cnnc21 (single isomer, unassigned) [Example 8, 3—phenoxy—5,6—dihydro[1,2,4]triazolo[4,3—a][1,8]naphthyridin—6—amine ENT—1]  286 nM
29. Cc1cc(-c2ccc3c(c2)CC(N)c2n[nH]c(=O)n2-3)cnc1F (stereo not drawn) [Example 43, 4—amino—7—(6—fluoro—5—methylpyridin—3—yl)—4,5—dihydro[1,2,4]triazolo[4,3—a]quinolin—1(2H)—one, trifluoroacetate salt]  263 nM
30. Cn1ncc2c(-c3ccc4c(c3)CC(N)c3n[nH]c(=O)n3-4)cccc21 (stereo not drawn) [Example 15, 4—amino—7(1—methyl—1H—indazol—4—yl)—4,5—dihydro[1,2,4]triazolo[4,3—a]quinolin—1(2H)—one, trifluoroacetate salt]  262 nM
31. COc1ncccc1-c1ccc2c(c1)CC(N)c1n[nH]c(=O)n1-2 (stereo not drawn) [Example 33, 4—amino—7—(2—methoxypyridin—3—yl)—4,5—dihydro[1,2,4]triazolo[4,3—a]quinolin—1(2H)—one, trifluoroacetate salt]  197 nM
32. NC1Cc2cc(-c3cccc(Cl)c3)ccc2-n2c1n[nH]c2=O (stereo not drawn) [Example 14, 4—amino—7—(3—chlorophenyl)—4,5—dihydro[1,2,4]triazolo[4,3—a]quinolin—1(2H)—one, trifluoroacetate salt]  156 nM
33. COc1cccc(Oc2ccc3c(c2)CC(N)c2nncn2-3)c1 (single isomer, unassigned; ent-1) [Example 4, 7-(3-Methoxyphenoxy)-4,5-dihydro[1,2,4]triazolo[4,3-a]quinolin-4-amine, ENT-1]  107 nM

— patent US20150175603A1, “TRICYCLIC COMPOUNDS AS KAT II INHIBITORS” (PFIZER INC., priority 2012, published 2015)
